Measurements: publication PMC6968685 (Journal of Enzyme Inhibition and Medicinal Chemistry, 2020)

Assays:
[1] = system: T. brucei brucei AnTat 1.9; experiment: In vitro antitrypanosomal activity, Alamar Blue assay; type: cell-based; settings: for Selectivity index HepG2/Tryp.: SI = CC50 HepG2 / IC50 Trypanosoma brucei brucei; for IC50: Trypanosoma brucei, slender bloodstream trypomastigotes, AnTat 1.9 strain, read-out: Trypanosoma brucei brucei IC50 values, Trypanos Antat 1.9
Method: The effects of the tested compounds on the growth of T. brucei brucei were assessed using an Alamar Blue® assay described by Räz et al.[49] T. brucei brucei AnTat 1.9 (IMTA, Antwerpen, Belgium) was cultured in MEM with Earle’s salts, supplemented according to the protocol of Baltz et al.[50] with the following modifications: 0.5 mM mercaptoethanol (Sigma Aldrich), 1.5 mM L-cysteine (Sigma Aldrich), 0.05 mM bathocuproine sulphate (Sigma Aldrich), and 20% heat-inactivated horse serum (Gibco, France) at 37 °C and 5% CO2. Samples were incubated at an average density of 2000 parasites/well in sterile 96-wells plates (Fisher, France) with various concentrations of compounds dissolved in 0.9% NaCl. All doses were tested in duplicate. Appropriate controls treated with solvents 0.9% NaCl or DMSO or with suramin, pentamidine, eflornithine, and fexinidazole (reference drugs purchased from Sigma Aldrich and Fluorochem, UK) were added to each set of experiments. After 69 h incubation period at 37 °C, 10 µl of the viability marker Alamar Blue (Fisher) was added to each well, and the plates were incubated for 5 h. The plates were read in a PerkinElmer ENSPIRE (Germany) microplate reader using an excitation wavelength of 530 nm and an emission wavelength of 590 nm. […] IC50 values were calculated using a nonlinear regression analysis of dose-response curves performed using GraphPad Prism software (La Jolla, CA). IC50 values were calculated from three independent experiments.

[2] = system: P. falciparum CQ-sensitive strain 3D7; experiment: In vitro antiplasmodial activity, SYBR Green I fluorescence-based method, strain 3D7; type: cell-based; settings: for IC50: Plasmodium falciparum, chloroquine-sensitive strain 3D7, 48 h incubation, read-out: P. falciparum strains IC50 values, 3D7; for Selectivity index HepG2/3D7: SI = CC50 HepG2 / IC50 P. falciparum 3D7
Method: (§1) The in vitro antiplasmodial activities were tested over concentrations ranging from […] against culture-adapted P. falciparum reference strains 3D7 and W2. […] The parasites were cultivated in RPMI medium (Sigma-Aldrich, Lyon, France) supplemented with 0.5% Albumax I (Life Technologies Corporation, Paisley, UK), hypoxanthine (Sigma-Aldrich), and gentamicin (Sigma-Aldrich) with human erythrocytes and were incubated at 37 °C in a candle jar, as described previously[43] .The P. falciparum drug susceptibility test was carried out in 96-well flat-bottom sterile plates in a final volume of 250 µl. After 48 h incubation period with the drugs, quantities of DNA in treated and control cultures of parasites in human erythrocytes were quantified using the SYBR Green I (Sigma-Aldrich) fluorescence-based method[44]^,[45]. Briefly, after incubation, plates were frozen at −20 °C until use. Plates were then thawed for 2 h at room temperature, and 100 µl of each homogenised culture was transferred to a well of a 96-well flat-bottom sterile black plate (Nunc, Inc., Rochester, NY) that contained 100 µl of the SYBR Green I lysis buffer (2xSYBR Green, 20 mM Tris base pH 7.5, 5 mM EDTA, 0.008% w/v saponin, 0.08% w/v Triton X-100). […] Plates were incubated for 1 h at room temperature and then read on a fluorescence plate reader (Tecan, Grödig, Austria) using excitation and emission wavelengths of 485 and 535 nm, respectively. IC50 values were calculated by non-linear regression analysis of data from dose-response curves, using TableCurve 2D version 5.0 software (Systat Software, San Jose, CA). IC50 values are reported as means calculated from three independent experiments.

[3] = Cytotoxicity evaluation, MTT; type: cell-based, human; settings: human
Method: These cells are a commonly used human hepatocarcinoma-derived cell line that has characteristics similar to those of primary hepatocytes. These cells express many hepatocyte-specific metabolic enzymes, thus enabling the cytotoxicity of tested product metabolites to be evaluated. […] Duplicate assays were performed for each sample. Each well was microscopically examined for precipitate formation before the medium was aspirated from the wells. After aspiration, 100 µl of MTT solution (0.5 mg/ml in medium without FCS) were then added to each well. […] The MTT solution was removed, and DMSO (100 µl) was added to dissolve the resulting blue formazan crystals. Plates were shaken vigorously (300 rpm) for 5 min. The absorbance was measured at 570 nm with 630 nm as reference wavelength in a BIO-TEK ELx808 Absorbance Microplate Reader. DMSO was used as blank and doxorubicin (Sigma Aldrich) as positive control. Cell viability was calculated as percentage of control (cells incubated without compound). The CC50 was determined from the dose-response curve using the TableCurve 2D version 5.0 software (Systat Software, San Jose, CA)

[4] = system: P. falciparum CQ-resistant strain W2; experiment: In vitro antiplasmodial activity, SYBR Green I fluorescence-based method, strain W2; type: cell-based; settings: for IC50: Plasmodium falciparum, chloroquine-resistant strain W2, 48 h incubation, read-out: P. falciparum strains IC50 values, W2; for Selectivity index HepG2/W2: SI = CC50 HepG2 / IC50 P. falciparum W2
Method: as §1

[5] = system: L. donovani (MHOM/IN/00/DEVI) promastigotes; experiment: In vitro antileishmanial activity, MTT assay on promastigotes; type: cell-based; settings: Leishmania donovani, 72 h incubation, ≥10 = no activity noted at the highest concentration tested
Method: L. donovani (MHOM/IN/00/DEVI) used in this study was provided by the CNR Leishmania (Montpellier, France). The effects of the tested compounds on the growth of L. donovani (MHOM/IN/00/DEVI) promastigotes were assessed by MTT assay. Briefly, promastigotes in log-phase in Schneider’s medium supplemented with 20% foetal calf serum (FCS), 2 mM L-glutamine and antibiotics (100 U/ml penicillin and 100 µg/ml streptomycin), were incubated at an average density of 10^6 parasites/ml in sterile 96-well plates with various concentrations of compounds dissolved in DMSO (final concentration less than 0.5% v/v), in duplicate. Appropriate controls treated with DMSO and amphotericin B (reference drug purchased from Sigma-Aldrich) were added to each set of experiments. After 72 h incubation period at 27 °C, parasite metabolic activity was determined. Each well was microscopically examined for precipitate formation. To each well was added 20 µl of 5 mg/ml MTT [3–(4,5-dimethylthiazol-2-yl)-2,5-diphenyltetrazolium bromide)] solution followed by 4 h incubation time. The enzyme reaction was stopped by addition of 100 µl of 50% isopropanol/10% sodium dodecyl sulfate. Plates were vigorously shaken (300 rpm) for 10 min, and the absorbance was measured at 570 nm in a BIO-TEK ELx808 Absorbance Microplate Reader. […] IC50 of the parasite’s growth (half maximal inhibitory concentration or IC50 values) were then calculated from the obtained experimental results using a previously described regression programme.

SMILES	Selectivity index HepG2/Tryp. [1]	IC50 [1] [nM]	IC50 [2] [nM]	Selectivity index HepG2/3D7 [2]	CC50 at 72 h [3] [µM]	IC50 [4] [µM]	Selectivity index HepG2/W2 [4]	IC50 [5] [µM]
COc1ccc2nc(-c3ccc(CNCCCN(C)C)cc3)cc(-c3ccc(CNCCCN(C)C)cc3)c2c1 [Compound 1j, 6-Methoxy-2,4-bis{4-[(3-dimethylaminopropyl)aminomethyl]phenyl}quinoline]	4.03	620 ± 70	2650 ± 180	0.94	2.5 ± 0.2	4.21 ± 0.31	0.59	≥ 10
COc1ccc2nc(-c3ccc(CNCCCN4CCN(C)CC4)cc3)nc(-c3ccc(CNCCCN4CCN(C)CC4)cc3)c2c1 [Compound 3k, 6-Methoxy-2,4-bis{4-[(3–(4-methylpiperazin-1-yl)propyl)aminomethyl]phenyl}quinazoline]	24.06	940 ± 89	3120 ± 230	7.25	22.6 ± 1.1	4.84 ± 0.58	4.67	≥ 10
COc1ccc2nc(-c3ccc(CNCCCN4CCN(C)CC4)cc3)cc(-c3ccc(CNCCCN4CCN(C)CC4)cc3)c2c1 [Compound 1l, 6-Methoxy-2,4-bis{4-[(3–(4-methylpiperazin-1-yl)propyl)aminomethyl]phenyl}quinoline]	0.66	1540 ± 164	1800 ± 200	0.57	1.02 ± 0.1	4.51 ± 0.71	0.23	≥ 10
COc1ccc2c(-c3ccc(CNCCCCN4CCN(C)CC4)cc3)nc(-c3ccc(CNCCCCN4CCN(C)CC4)cc3)nc2c1 [Compound 3p, 7-Methoxy-2,4-bis{4-[(4–(4-methylpiperazin-1-yl)butyl)aminomethyl]phenyl}quinazoline]	17.01	1020 ± 194	6560 ± 1440	2.64	17.4 ± 1.2	5.08 ± 0.48	3.41	≥ 10
COc1ccc2c(-c3ccc(CNCCCCN4CCN(C)CC4)cc3)nc(-c3ccc(CNCCCCN4CCN(C)CC4)cc3)cc2c1 [Compound 2k, 6-Methoxy-1,3-bis{4-[(4–(4-methylpiperazin-1-yl)butyl)aminomethyl]phenyl}isoquinoline]	6.54	990 ± 122	8910 ± 870	0.73	6.48 ± 0.6	5.96 ± 0.54	1.09	≥ 10
COc1ccc2nc(-c3ccc(CNCCCCN4CCN(C)CC4)cc3)cc(-c3ccc(CNCCCCN4CCN(C)CC4)cc3)c2c1 [Compound 1k, 6-Methoxy-2,4-bis{4-[(4–(4-methylpiperazin-1-yl)butyl)aminomethyl]phenyl}quinoline]	6.28	980 ± 118	2590 ± 200	2.38	6.16 ± 0.4	4.1 ± 0.54	1.50	≥ 10
c1cc(CNCCCN2CCOCC2)cc(-c2nc(-c3cccc(CNCCCN4CCOCC4)c3)c3ccccc3n2)c1 [Compound 3u, 2,4-Bis{3-[(3-morpholinopropyl)aminomethyl]phenyl}quinazoline]	3.67	720 ± 70	430 ± 142	6.14	2.64 ± 0.2			≥ 10
CN(C)CCCCNCc1ccc(-c2nc(-c3ccc(CNCCCCN(C)C)cc3)c3ccccc3n2)cc1 [Compound 3a, 2,4-Bis{4-[(4-dimethylaminobutyl)aminomethyl]phenyl}quinazoline]	4.70	900 ± 54	2150 ± 106	1.96	4.23 ± 0.4			≥ 10
COc1ccc2c(-c3ccc(CNCCCN(C)C)cc3)nc(-c3ccc(CNCCCN(C)C)cc3)nc2c1 [Compound 3n, 7-Methoxy-2,4-bis{4-[(3-dimethylaminopropyl)aminomethyl]phenyl}quinazoline]	2.58	1050 ± 58	2520 ± 237	1.08	2.71 ± 0.3			≥ 10
CN(C)CCCCNCc1ccc(-c2cc(-c3ccc(CNCCCCN(C)C)cc3)c3ccccc3n2)cc1 [Compound 1a, 2,4-Bis{4-[(4-dimethylaminobutyl)aminomethyl]phenyl}quinoline]	7.03	840 ± 33	4080 ± 488	1.45	5.91 ± 1.5			≥ 10
